Results reported in patent publication US12115221B2, “Pickering emulsion stabilized by cellulose nanocrystals from ginkgo seed shells and preparation method thereof” (Jiangnan University, priority 2019, dated 2024).

Assay: Degradation rate of curcumin on storage
Type: physicochemical
Conditions: storage at room temperature for 7 days
Experimental: Curcumin was dissolved in an oil phase. The CNCs with low aspect ratio obtained in the Example 6 were diluted to 0.3 wt %, and an emulsion was prepared according to the oil-water ratio of 1:9. Subsequently, high-speed shearing was carried out at 10000 rpm for 2 min using high-speed shearing equipment to obtain a coarse emulsion, and then the coarse emulsion was circulated 4 times at 30 MPa using a high-pressure homogenizer to obtain the final Pickering emulsion. Determination of degradation rate of curcumin: a certain volume of emulsion was taken; the emulsion was mixed with ethanol in a ratio of 1:1; the mixture was centrifuged at 11000 rpm for 5 min; the supernatant was collected; and the absorbance at 426 nm was measured. Formula of degradation rate: Degradation rate (100%)=m1/m2×100, wherein m1 is the mass of curcumin after the emulsion is placed, and m2 is the mass of curcumin before the emulsion is placed.

COc1cc(/C=C/C(=O)CC(=O)/C=C/c2ccc(O)c(OC)c2)ccc1O [curcumin in the aqueous solution, Curcumin]
degradation rate of curcumin: 80%
